According to patent US20250367348A1, “3D PRINTING OF 3-LAYERED RETINA AND CHOROID TISSUE” (Ramot at Tel-Aviv University Ltd., priority 2023, published 2025):

Key:
[1] = tested on: engineered RPE layer (blood vessel-RPE construct); experiment: Calcium imaging (Fluo-4-AM) after ATP addition; format: cell-based; details: 100 μM ATP added to medium; followed by slow decrease to baseline
Procedure: Calcium imaging: Fluo-4-AM was prepared by adding 45 μL DMSO and 45 μL Pluronic-DMSO to a 50 μg vial of Fluo-4-AM.Fluo-4-AM was diluted with HBSS in a ratio of 1:50 and the cells were incubated for 1 hour in 37° C. The cells were washed for 30 minutes in HBSS in 37° C. The sample was placed in an inverted microscope on a heating plate adjusted to 37° C. Fluo-4-AM emission is at 506 nm and excitation is at 494 nm. Images were acquired at a rate of 3.15 Hz. 10 seconds After starting the recording 100 μM ATP were added to the medium. The data was analyzed using ImageJ. TEM: TEM Samples were fixated in 2.5% Glutaraldehyde in PBS over night at 4° C. After several washes in PBS, the samples were post fixed in 1% OsO4 in PBS for 2 h at 4° C. Dehydration was carried out in graded ethanol followed by embedding in Glycid ether. Thin sections were mounted on Formvar/Carbon coated grids, stained with uranyl acetate and lead citrate and examined in Jeol 1400-Plus transmission electron microscope (Jeol, Japan). Images were captured using SIS Megaview III and iTEM the Tem imaging platform (Olympus).SEM: Samples for SEM were fixed with 2.5% glutaraldehyde (24 h, at […]), followed by a graded incubation series in ethanol-water solutions (50-100% (v/v)). […]

[2] = Compressive (bulk) modulus of hydrogel; format: physicochemical; details: compression at 100 μm s^−1; n=3
Procedure: The compressive modulus measurements were performed using a Discovery HR-3 Hybrid Rheometer (TA Instruments, DE) with a 20 mm diameter parallel plate geometry and a Peltier plate to maintain the sample temperature. Bulk modulus tests were performed by compressing the samples at a fixed rate of 100 μm s^−1.
Alongside the rheological testing, the bulk mechanical properties of the hydrogel were also assessed. Samples were compressed, and the linear elastic modulus was calculated. Data are presented as mean±SD, n=3.

[3] = High-resolution imaging of hydrogel fiber morphology and pore size; format: physicochemical
Procedure: Data in FIG. 7I is presented as mean±SD, n=3, and each image had at least 180 pores whose area was determined using ImageJ.

[4] = Rheological shear thinning measurements of native and cross-linked ECM hydrogel; format: physicochemical; details: 37° C.
Procedure: Rheological Properties: Rheological measurements were taken using Discovery HR-3 hybrid Rheometer (TA Instruments, DE) with 20 mm diameter parallel plate geometry with a Peltier plate to maintain the sample temperature. The samples were loaded at a temperature of 4° C., which was then raised to 37° C. to induce gelation; during which the oscillatory moduli of samples were monitored at a fixed frequency of 1 Hz and a strain of 1%.
The mechanical properties of an exemplary native ECM-based hydrogel (derived from omentum) and of cross-linked hydrogels were assessed by rheological measurements. Shear thinning measurements were conducted at 37° C. Data are presented as mean±SD, n=3. P-values were calculated using a Comparison of Fits test with an Extra Sum of Squares F-test.

Row | hydrogel bulk (linear elastic) modulus with and without exposure to SOx [2] | internal fiber morphology of ECM hydrogel after reinforcement ([3]; before vs after exposure to SOx) | pore size (holes in the mesh) before and after crosslinking ([3]; n=3, at least 180 pores per image) | change in gel viscosity ([4]; increasing SOx concentration to 0.07%) | change in gel viscosity ([4]; sample cross-linked with 0.03% SOx vs control gel) | Molecule | intracellular calcium levels [1]
1 |  |  |  |  |  | Nc1ncnc2c1ncn2[C@@H]1O[C@H](COP(=O)(O)OP(=O)(O)OP(=O)(O)O)[C@@H](O)[C@H]1O [ATP, adenosine triphosphate] | immediately increased intracellular calcium levels in a significant manner
2 | significant reinforcement | without altering the internal morphology | no difference was observed | smaller increase | large increase | Oxidized sucrose [SOx] | 
